# In ChEMBL document CHEMBL4138169, “Biological activity of dihydropyrimidinone (DHPM) derivatives: A systematic review” (Eur J Med Chem, 2018):
# Molecular target: Cav1.2 (voltage-dependent L-type calcium channel subunit alpha-1C) (Homo sapiens, UniProt Q13936)
# Assay: Inhibition of human Cav1.2 expressed in HEK293 cells assessed as reduction in Ca2+ uptake at 100 uM measured as first 2 mins sampled at a frequency of one sample every second and the last 12 min at a frequency of one sample every 5 secs by fluo-3AM-based FLIPR assay
# Format: cell-based
# Conditions: HEK293 cells that express human Cav1.2
# Chain of Cav1.2 (voltage-dependent L-type calcium channel subunit alpha-1C) (Q13936 whole entry): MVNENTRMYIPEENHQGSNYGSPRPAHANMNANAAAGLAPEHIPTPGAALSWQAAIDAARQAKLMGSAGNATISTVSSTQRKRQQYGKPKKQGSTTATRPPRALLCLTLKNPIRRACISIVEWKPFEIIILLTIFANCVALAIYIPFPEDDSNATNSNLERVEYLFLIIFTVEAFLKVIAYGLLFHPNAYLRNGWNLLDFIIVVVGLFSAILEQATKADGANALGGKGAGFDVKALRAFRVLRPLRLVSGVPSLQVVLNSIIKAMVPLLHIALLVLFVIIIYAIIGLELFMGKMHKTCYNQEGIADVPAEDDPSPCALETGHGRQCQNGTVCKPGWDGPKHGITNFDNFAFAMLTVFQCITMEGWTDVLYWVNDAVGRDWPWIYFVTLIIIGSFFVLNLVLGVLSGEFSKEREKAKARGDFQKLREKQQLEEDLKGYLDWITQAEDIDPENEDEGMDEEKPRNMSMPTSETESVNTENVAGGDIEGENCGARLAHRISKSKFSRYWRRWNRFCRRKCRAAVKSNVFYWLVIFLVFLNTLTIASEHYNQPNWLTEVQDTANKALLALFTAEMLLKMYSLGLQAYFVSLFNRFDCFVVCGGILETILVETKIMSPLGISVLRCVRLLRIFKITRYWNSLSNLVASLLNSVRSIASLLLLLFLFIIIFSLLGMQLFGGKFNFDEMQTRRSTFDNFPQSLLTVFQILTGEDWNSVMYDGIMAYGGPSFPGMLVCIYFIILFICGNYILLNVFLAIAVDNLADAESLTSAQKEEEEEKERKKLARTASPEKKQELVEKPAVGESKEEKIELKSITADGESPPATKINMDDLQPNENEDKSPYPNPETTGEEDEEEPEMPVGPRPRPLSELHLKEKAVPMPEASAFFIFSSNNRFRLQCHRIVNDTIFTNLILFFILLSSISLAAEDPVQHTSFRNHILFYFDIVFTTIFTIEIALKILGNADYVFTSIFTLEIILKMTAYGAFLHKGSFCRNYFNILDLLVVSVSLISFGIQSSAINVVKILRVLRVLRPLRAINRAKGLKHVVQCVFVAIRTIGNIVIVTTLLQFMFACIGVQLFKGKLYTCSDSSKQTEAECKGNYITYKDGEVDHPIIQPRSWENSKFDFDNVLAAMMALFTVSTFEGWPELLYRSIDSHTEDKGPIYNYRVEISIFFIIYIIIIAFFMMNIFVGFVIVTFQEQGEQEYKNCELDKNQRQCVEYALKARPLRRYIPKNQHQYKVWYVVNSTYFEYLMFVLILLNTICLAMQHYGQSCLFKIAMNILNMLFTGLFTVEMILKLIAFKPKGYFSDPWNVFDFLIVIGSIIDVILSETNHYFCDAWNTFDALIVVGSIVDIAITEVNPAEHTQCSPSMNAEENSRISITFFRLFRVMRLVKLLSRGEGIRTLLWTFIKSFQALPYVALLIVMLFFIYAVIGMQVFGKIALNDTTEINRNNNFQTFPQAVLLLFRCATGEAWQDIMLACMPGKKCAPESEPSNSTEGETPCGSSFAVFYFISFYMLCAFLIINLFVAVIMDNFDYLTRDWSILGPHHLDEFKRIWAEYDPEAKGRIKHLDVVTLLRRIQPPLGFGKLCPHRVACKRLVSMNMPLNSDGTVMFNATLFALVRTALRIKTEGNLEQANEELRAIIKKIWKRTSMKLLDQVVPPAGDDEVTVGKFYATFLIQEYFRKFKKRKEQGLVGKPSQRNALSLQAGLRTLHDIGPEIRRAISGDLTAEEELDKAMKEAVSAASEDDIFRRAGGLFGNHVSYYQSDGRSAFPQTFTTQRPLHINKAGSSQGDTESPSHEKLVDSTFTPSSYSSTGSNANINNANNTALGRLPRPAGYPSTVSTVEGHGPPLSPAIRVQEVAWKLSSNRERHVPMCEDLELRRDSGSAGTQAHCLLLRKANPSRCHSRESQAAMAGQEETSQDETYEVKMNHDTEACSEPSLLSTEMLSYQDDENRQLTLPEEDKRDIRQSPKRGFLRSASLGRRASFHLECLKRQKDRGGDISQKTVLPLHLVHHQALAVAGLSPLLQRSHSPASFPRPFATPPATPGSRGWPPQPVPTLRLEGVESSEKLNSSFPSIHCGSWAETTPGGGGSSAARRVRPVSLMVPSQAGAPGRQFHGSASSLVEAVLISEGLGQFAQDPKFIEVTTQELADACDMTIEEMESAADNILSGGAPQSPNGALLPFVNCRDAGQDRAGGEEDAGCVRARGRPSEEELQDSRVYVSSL
compound,measurement,value
CCOC(=O)C1=C(C)NC(=S)NC1c1cccc(O)c1 (stereo unspecified) [MONASTROL],inhibition at 100 µM,70%
